From PubChem BioAssay AID686923 (Vanderbilt Specialized Chemistry Center, 2013)
pIC50: −log10 of the molar value. Active and inactive are the calls of the source. The rule behind the calls is not given here.

Legend:
[1] = target: In vitro counter assay against key known off-targets for selectedBMP Compounds; test: PubChem AID 686923; settings: in vitro kinase counter-screen panel
[2] = target: Vascular endothelial growth factor receptor 2 (Homo sapiens) (UniProt P35968); test: PubChem AID 686923; settings: in vitro kinase counter-screen panel
Sequence of Vascular endothelial growth factor receptor 2 (Homo sapiens) (P35968 whole entry, looked up): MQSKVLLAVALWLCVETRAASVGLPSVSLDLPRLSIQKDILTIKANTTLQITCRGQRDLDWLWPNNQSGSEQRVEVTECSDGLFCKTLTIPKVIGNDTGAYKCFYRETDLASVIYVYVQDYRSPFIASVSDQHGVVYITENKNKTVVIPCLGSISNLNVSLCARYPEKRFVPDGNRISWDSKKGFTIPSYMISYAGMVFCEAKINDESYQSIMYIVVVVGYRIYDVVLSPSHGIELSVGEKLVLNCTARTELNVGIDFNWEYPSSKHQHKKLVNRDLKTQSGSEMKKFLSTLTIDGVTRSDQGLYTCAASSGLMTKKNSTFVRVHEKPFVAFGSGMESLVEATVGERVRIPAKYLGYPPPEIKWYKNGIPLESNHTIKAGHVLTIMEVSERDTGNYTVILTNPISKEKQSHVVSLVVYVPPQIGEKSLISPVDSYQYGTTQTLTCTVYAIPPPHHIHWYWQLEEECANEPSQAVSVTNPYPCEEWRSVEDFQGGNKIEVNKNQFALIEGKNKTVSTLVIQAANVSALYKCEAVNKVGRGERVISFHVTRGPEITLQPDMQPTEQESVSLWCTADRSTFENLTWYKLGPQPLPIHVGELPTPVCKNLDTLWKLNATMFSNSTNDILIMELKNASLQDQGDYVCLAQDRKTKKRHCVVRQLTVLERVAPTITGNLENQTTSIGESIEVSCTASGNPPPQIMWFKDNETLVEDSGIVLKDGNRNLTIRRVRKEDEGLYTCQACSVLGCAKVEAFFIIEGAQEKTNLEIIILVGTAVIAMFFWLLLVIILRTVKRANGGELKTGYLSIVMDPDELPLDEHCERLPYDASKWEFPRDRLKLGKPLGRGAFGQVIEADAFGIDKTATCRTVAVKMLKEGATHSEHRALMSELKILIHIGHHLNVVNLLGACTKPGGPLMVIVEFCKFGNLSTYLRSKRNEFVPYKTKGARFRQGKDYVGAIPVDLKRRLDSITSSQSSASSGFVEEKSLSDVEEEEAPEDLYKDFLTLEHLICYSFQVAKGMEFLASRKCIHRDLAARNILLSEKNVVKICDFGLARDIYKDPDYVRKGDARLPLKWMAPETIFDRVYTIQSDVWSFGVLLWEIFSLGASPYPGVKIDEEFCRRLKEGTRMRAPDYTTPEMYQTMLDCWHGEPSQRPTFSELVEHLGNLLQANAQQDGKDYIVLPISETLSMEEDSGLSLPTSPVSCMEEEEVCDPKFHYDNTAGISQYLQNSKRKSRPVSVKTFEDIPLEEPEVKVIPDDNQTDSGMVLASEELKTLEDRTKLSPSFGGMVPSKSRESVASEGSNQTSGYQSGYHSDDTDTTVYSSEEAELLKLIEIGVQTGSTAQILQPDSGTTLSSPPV

| IC50 [1] | IC50 [2] | pIC50 [1] | Compound |
| --- | --- | --- | --- |
| inactive | inactive | – | COc1ccc(-c2cnc3c(-c4cccc5cccnc45)cnn3c2)cc1 |
| – | – | 3.60 | c1cc(-c2cnn3cc(-c4ccc(N5CCNCC5)cc4)cnc23)c2cccnc2c1 |
| – | inactive | – | COc1ccc(-c2cnc3c(-c4cccc5ncccc45)cnn3c2)cc1 |
